Laboratory results taken from ChEMBL document CHEMBL6109162, “Discovery of Highly Potent BET Inhibitors based on a Tractable Tricyclic Scaffold” (ACS Med Chem Lett, 2025).

Experiments:
[1] = target: T1, Bromodomain-containing protein 4 (Homo sapiens, UniProt O60885); assay: Inhibition of BRD4 BD1 (unknown origin) by FRET assay
[2] = target: T1, Bromodomain-containing protein 4; assay: Inhibition of BRD4 (unknown origin) by FRET assay

Compound | IC50 [1] [nM] | IC50 [2] [nM]
Cc1nnn(C)c1-c1cnc2c3ccc(C(C)(C)O)cc3n([C@@H](c3ccccc3)C3CCOCC3)c2c1 | 2.88 | –
CCS(=O)(=O)Nc1ccc(Oc2ccc(F)cc2F)c(-c2cn(C)c(=O)c3[nH]ccc23)c1 [MIVEBRESIB] | – | 1.51
